Records with an inconclusive call do not appear. Calls of active or inactive are those of the source. No rule for the calls is given here.
What follows are compounds tested against Zinc finger protein mex-5 (Caenorhabditis elegans) (UniProt Q9XUB2) (assay: retest of MEX-5 TCR-2 binding inhibitors, confirmation, biochemical, C. elegans, fluorescence polarization, dose retest (AID 449745;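 also: potency is for blocking Mex-5 binding to labeled TCR2 RNA like unlabeled competitor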)). Settings: Mex-5 / TCR-2 RNA binding.
Sequence of Zinc finger protein mex-5 (Caenorhabditis elegans) (Q9XUB2 whole entry, looked up): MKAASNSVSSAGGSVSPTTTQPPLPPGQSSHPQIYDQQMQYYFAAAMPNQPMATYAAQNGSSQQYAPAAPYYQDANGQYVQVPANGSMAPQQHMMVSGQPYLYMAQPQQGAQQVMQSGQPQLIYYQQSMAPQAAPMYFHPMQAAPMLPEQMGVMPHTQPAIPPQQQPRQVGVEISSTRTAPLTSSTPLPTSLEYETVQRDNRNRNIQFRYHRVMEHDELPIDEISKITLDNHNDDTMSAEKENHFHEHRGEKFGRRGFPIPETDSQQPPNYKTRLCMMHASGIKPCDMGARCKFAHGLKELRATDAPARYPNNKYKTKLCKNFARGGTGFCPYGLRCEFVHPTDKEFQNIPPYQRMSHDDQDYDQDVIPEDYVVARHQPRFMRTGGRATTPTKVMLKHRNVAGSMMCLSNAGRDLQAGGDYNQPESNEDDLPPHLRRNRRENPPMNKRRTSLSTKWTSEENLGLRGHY

Row | Compound | AC50
1 | O=C(O)CCCCCN1C(=O)C(O)=C(C(=O)/C=C/c2ccccc2)C1c1ccccc1[N+](=O)[O-] (stereo not drawn) | > 38 µM (inactive)
2 | CCOC(=O)C(C(=O)OCC)c1cc(Br)c2noc3c2c1C(=O)c1ccccc1-3 | < 0.3 µM
3 | O=C1CS/C(=N\NC(=O)c2ccccc2)N1 | 12 µM

From PubChem BioAssay AID449745 (Broad Institute, 2010)
